Source: publication PMC7496096, “Functional Characterisation of ClpP Mutations Conferring Resistance to Acyldepsipeptide Antibiotics in Firmicutes” (Chembiochem, 2020)
Converted amounts (≈) assume the structure as drawn.

Key:
E. faecium L4001 = format: cell-based, Enterococcus faecium; conditions: broth microdilution, Mueller-Hinton broth; wildtype
Protocol: (§1) Determination of antibacterial activity: ADEP1 was purified from the culture supernatant of S. hawaiiensis NRRL 15010 as described.4 ADEPs 2, 4, 7, 9 were custom synthesised by EMC Microcollections, Tübingen, or provided by AiCuris, Wuppertal, Germany. The minimal inhibitory concentration (MIC) was determined by broth microdilution in Mueller‐Hinton broth (without cation adjustment) according to the guidelines of the Clinical Laboratory Standards Institute (CLSI).69 The inoculum was set to 5×10^4 CFU mL^−1 to allow some distance to the determined spontaneous resistance frequencies. […] All other ADEPs were used from DMSO stock solutions kept at −20 °C.

S. aureus RC16 = format: cell-based, Staphylococcus aureus; conditions: resistant clone of S. aureus ATCC 29213; ClpP A114→T (ClpP core; β5)
Protocol: as §1
(§2) Screening for ADEP‐resistant mutants and determination of resistance rates: Single colonies of wild‐type strains grown on Mueller‐Hinton agar plates overnight were suspended in sterile saline and a final inoculum of 5×10^6 cells was spread on plates supplemented with different ADEP congeners at 4× and 10× the MIC. For B. subtilis strain 3xclpP, ADEP7‐containing Mueller‐Hinton agar plates were additionally supplemented with 1 mM IPTG. Resistant colonies were counted after 24 h at 37 °C and colonies were randomly chosen for MIC determinations and sequencing. Mutations in the clpP gene of the respective isolated mutants were analysed by amplifying the clpP gene (and upstream promoter region) by PCR and sequencing of the resulting PCR amplicons (LGC genomics). Sequencing data were analysed by using SnapGene software (GSL Biotech).

S. aureus RC2 = format: cell-based, Staphylococcus aureus; conditions: resistant clone of S. aureus 133; ClpP M190→T, ADEP binding site
Protocol: as §1, §2

S. aureus RC13 = format: cell-based, Staphylococcus aureus; conditions: resistant clone of S. aureus ATCC 29213; ClpP G68→V (ClpP core)
Protocol: as §1, §2

S. aureus RC10 = format: cell-based, Staphylococcus aureus; conditions: resistant clone of S. aureus ATCC 29213; ClpP I165→M (equatorial interface; α6)
Protocol: as §1, §2

S. aureus RC6 = format: cell-based, Staphylococcus aureus; conditions: resistant clone of S. aureus 133; ClpP Q35→STOP, premature stop
Protocol: as §1, §2

S. aureus RC5 = format: cell-based, Staphylococcus aureus; conditions: resistant clone of S. aureus 133; ClpP A133→V, ring-ring interaction
Protocol: as §1, §2

S. aureus RC9 = format: cell-based, Staphylococcus aureus; conditions: resistant clone of S. aureus ATCC 29213; ClpP H123→R, active site
Protocol: as §1, §2

S. aureus RC7 = format: cell-based, Staphylococcus aureus; conditions: resistant clone of S. aureus ATCC 29213; ClpP Q89→STOP, premature stop
Protocol: as §1, §2

S. aureus RC18 = format: cell-based, Staphylococcus aureus; conditions: resistant clone of S. aureus ATCC 29213; ClpP R23→P, N-terminal gate
Protocol: as §1, §2

S. aureus RC12 = format: cell-based, Staphylococcus aureus; conditions: resistant clone of S. aureus ATCC 29213; ClpP E9→V, N-terminal gate
Protocol: as §1, §2

S. aureus RC1 = format: cell-based, Staphylococcus aureus; conditions: resistant clone of S. aureus 133; ClpP Q132→H, oligomerisation sensor
Protocol: as §1, §2

S. aureus RC17 = format: cell-based, Staphylococcus aureus; conditions: resistant clone of S. aureus ATCC 29213; ClpP A133→V, ring-ring interaction
Protocol: as §1, §2

S. aureus RC14 = format: cell-based, Staphylococcus aureus; conditions: resistant clone of S. aureus ATCC 29213; ClpP I91→T; A96→V (ClpP core; β3, β4)
Protocol: as §1, §2

B. subtilis RC1 = format: cell-based, Bacillus subtilis; conditions: resistant clone of B. subtilis 168; ClpP E156→STOP, premature stop
Protocol: as §1, §2

[1] = test system: B. subtilis 3xclpP clones; format: cell-based, Bacillus subtilis; conditions: B. subtilis 3xclpP resistant clones
Protocol: as §1, §2

B. subtilis RC10 = format: cell-based, Bacillus subtilis; conditions: resistant clone of B. subtilis 168; ClpP A177→V (C-terminus; α7)
Protocol: as §1, §2

B. subtilis RC11 = format: cell-based, Bacillus subtilis; conditions: resistant clone of B. subtilis 168; ClpP Q132→STOP, premature stop
Protocol: as §1, §2

B. subtilis RC3 = format: cell-based, Bacillus subtilis; conditions: resistant clone of B. subtilis 168; ClpP A76→T (ClpP core; α3)
Protocol: as §1, §2

B. subtilis RC4 = format: cell-based, Bacillus subtilis; conditions: resistant clone of B. subtilis 168; G insertion, frame shift, premature stop (E163→STOP)
Protocol: as §1, §2

B. subtilis RC12 = format: cell-based, Bacillus subtilis; conditions: resistant clone of B. subtilis 168; ClpP A101→T (ClpP core; α4)
Protocol: as §1, §2

B. subtilis RC7 = format: cell-based, Bacillus subtilis; conditions: resistant clone of B. subtilis 168; ClpP Q132→STOP, premature stop
Protocol: as §1, §2

B. subtilis RC6 = format: cell-based, Bacillus subtilis; conditions: resistant clone of B. subtilis 168; ClpP N65→N; Y183→F (C-terminus; α7)
Protocol: as §1, §2

B. subtilis RC8 = format: cell-based, Bacillus subtilis; conditions: resistant clone of B. subtilis 168; ClpP R142→H, intra-ring interaction
Protocol: as §1, §2

B. subtilis 168 = assay: microbe, parasite or virus in culture; format: cell-based, Bacillus subtilis; conditions: broth microdilution, Mueller-Hinton broth (without cation adjustment), CLSI, inoculum 5×10^4 CFU mL^−1; wild type
Protocol: as §1

How did the MIC (E. faecium L4001) turn out when `C[C@@H]1C[C@H]2C(=O)OC[C@H](NC(=O)[C@H](Cc3cc(F)cc(F)c3)NC(=O)CCC3CCCCC3)C(=O)N3CCC[C@H]3C(=O)N3CCCC[C@H]3C(=O)N[C@@H](C)C(=O)N2C1` [ADEP2] was run?
Its MIC is ≤0.063 µg/mL.

What about the MIC (S. aureus RC16) of the same compound?
Its MIC is >64 µg/mL.

What about the MIC (S. aureus RC2) of the same compound?
Its MIC is 2 µg/mL (≈ 2.5 µM).

And the MIC (S. aureus RC13)?
Its MIC is >64 µg/mL.

What about the MIC (S. aureus RC10) of the same compound?
The MIC was >64 µg/mL.

And the MIC (S. aureus RC6)?
The MIC was >64 µg/mL.

And the MIC (S. aureus RC5)?
Its MIC is >64 µg/mL.

And the MIC (S. aureus RC9)?
The MIC was >64 µg/mL.

What about the MIC (S. aureus RC7) of the same compound?
Its MIC is >64 µg/mL.

What about the MIC (S. aureus RC18) of the same compound?
The MIC was >64 µg/mL.

What about the MIC (S. aureus RC12) of the same compound?
Its MIC is >64 µg/mL.

What about the MIC (S. aureus RC1) of the same compound?
The MIC was 8 µg/mL (≈ 10 µM).

What about the MIC (S. aureus RC17) of the same compound?
The MIC was >64 µg/mL.

What about the MIC (S. aureus RC14) of the same compound?
The MIC was >64 µg/mL.

And the MIC (B. subtilis RC1)?
The MIC was >64 µg/mL.

What about the “MIC, clpP mutations in the ectopic loci” value ([1]; mutation in lacA or aprE ectopic copy) of the same compound?
The value was ~1 µg/mL (≈ 1.25 µM).

And the “MIC, clpP mutation in the original locus” value ([1]; mutation in native clpP locus)?
Its value is > 64 µg/mL.

What about the MIC (B. subtilis RC10) of the same compound?
Its MIC is >64 µg/mL.

What about the MIC (B. subtilis RC11) of the same compound?
The MIC was >64 µg/mL.

What about the MIC (B. subtilis RC3) of the same compound?
Its MIC is 16 to 32 µg/mL.

And the MIC (B. subtilis RC4)?
Its MIC is >64 µg/mL.

And the MIC (B. subtilis RC12)?
The MIC was >64 µg/mL.

And the MIC (B. subtilis RC7)?
The MIC was >64 µg/mL.

And the MIC (B. subtilis RC6)?
The MIC was >64 µg/mL.

And the MIC (B. subtilis RC8)?
Its MIC is >64 µg/mL.

What about the MIC (B. subtilis 168) of the same compound?
The MIC was ≤0.031 µg/mL.
